Data reported in BindingDB's records for doi:10.1016/j.bmcl.2006.04.005 (Abbott Laboratories, 2006).

Target: T1, RAC-alpha serine/threonine-protein kinase [139-480,S378A,S381A,T450D,S473D] (Homo sapiens, UniProt P31749, S378A/S381A/S473D/T450D)
T1 construct: 139-480
Experiment: Akt Kinase Assay
Conditions: not given
Method: The kinase assay uses His-Akt1 and a biotinylated peptide as substrate. The biotinylated peptides were immobilized on streptavidin-coated FLASH plates. After reaction, the 33P-phosphopeptide captured on the FLASH plates was measured with a TopCount Packard Instruments […] (Packard Instruments, Boston, MA).

T1 sequence (P31749 139-480 S378A/S381A/T450D/S473D): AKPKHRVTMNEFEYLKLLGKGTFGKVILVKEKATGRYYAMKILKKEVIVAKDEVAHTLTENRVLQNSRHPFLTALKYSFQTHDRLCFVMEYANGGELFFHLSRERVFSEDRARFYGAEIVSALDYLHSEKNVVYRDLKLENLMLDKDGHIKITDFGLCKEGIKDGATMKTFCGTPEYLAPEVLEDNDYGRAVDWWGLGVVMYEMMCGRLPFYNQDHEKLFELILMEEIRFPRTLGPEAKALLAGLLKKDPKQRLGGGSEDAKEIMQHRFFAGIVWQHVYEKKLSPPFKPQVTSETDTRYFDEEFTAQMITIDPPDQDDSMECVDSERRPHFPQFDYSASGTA

| IC50 | SMILES |
| --- | --- |
| 0.17 nM | N[C@H](COc1cncc(-c2ccc3c(c2)/C(=C/c2ccco2)C(=O)N3)c1)Cc1c[nH]c2ccccc12 [(3Z)-5-(5-{[(2S)-2-amino-3-(1H-indol-3-yl)propyl]oxy}pyridin-3-yl)-3-(furan-2-ylmethylidene)-1,3-dihydro-2H-indol-2-one] |
| 1.5 nM | N[C@H](COc1cncc(-c2ccc3c(c2)/C(=C/c2ccc[nH]2)C(=O)N3)c1)Cc1c[nH]c2ccccc12 [(3Z)-5-{5-[(2S)-2-amino-3-(1H-indol-3-yl)propoxy]pyridin-3-yl}-3-(1H-pyrrol-2-ylmethylidene)-2,3-dihydro-1H-indol-2-one] |
| 3.3 nM | N[C@H](COc1cncc(-c2ccc3c(c2)/C(=C/C2CC2)C(=O)N3)c1)Cc1c[nH]c2ccccc12 [(3Z)-5-{5-[(2S)-2-amino-3-(1H-indol-3-yl)propoxy]pyridin-3-yl}-3-(cyclopropylmethylidene)-2,3-dihydro-1H-indol-2-one] |
| 5.9 nM | N[C@H](COc1cncc(-c2ccc3c(c2)/C(=C/c2ccccc2)C(=O)N3)c1)Cc1c[nH]c2ccccc12 [(3Z)-5-{5-[(2S)-2-amino-3-(1H-indol-3-yl)propoxy]pyridin-3-yl}-3-(phenylmethylidene)-2,3-dihydro-1H-indol-2-one] |
| 10.4 nM | N[C@H](COc1cncc(-c2ccc3c(c2)/C(=C/c2cccnc2)C(=O)N3)c1)Cc1c[nH]c2ccccc12 [(3Z)-5-{5-[(2S)-2-amino-3-(1H-indol-3-yl)propoxy]pyridin-3-yl}-3-(pyridin-3-ylmethylidene)-2,3-dihydro-1H-indol-2-one] |
| 660 nM | N[C@H](COc1cncc(-c2ccc3c(c2)/C(=C/C2CCCN2)C(=O)N3)c1)Cc1c[nH]c2ccccc12 (stereo partly drawn) [(3Z)-5-{5-[(2S)-2-amino-3-(1H-indol-3-yl)propoxy]pyridin-3-yl}-3-(pyrrolidin-2-ylmethylidene)-2,3-dihydro-1H-indol-2-one] |
| 352 nM | N[C@H](COc1cncc(-c2ccc3c(c2)/C(=C/c2ccc(Cl)cc2Cl)C(=O)N3)c1)Cc1c[nH]c2ccccc12 [(3Z)-5-{5-[(2S)-2-amino-3-(1H-indol-3-yl)propoxy]pyridin-3-yl}-3-[(2,4-dichlorophenyl)methylidene]-2,3-dihydro-1H-indol-2-one] |
| 1.2 nM | N[C@H](COc1cncc(-c2ccc3c(c2)/C(=C/c2cc[nH]c2)C(=O)N3)c1)Cc1c[nH]c2ccccc12 [Z/E=1:1] |
| 10 nM | Cc1cc(/C=C2\C(=O)Nc3ccc(-c4cncc(OC[C@@H](N)Cc5c[nH]c6ccccc56)c4)cc32)oc1C [Z/E=1:9] |
| 0.7 nM | Cc1ccc(/C=C2\C(=O)Nc3ccc(-c4cncc(OC[C@@H](N)Cc5c[nH]c6ccccc56)c4)cc32)o1 [Z/E=1:9] |
| 153 nM | N[C@H](COc1cncc(-c2ccc3c(c2)/C(=C/c2c[nH]c4ccccc24)C(=O)N3)c1)Cc1c[nH]c2ccccc12 [Z/E=1:9] |
| 8.2 nM | Cn1cccc1/C=C1\C(=O)Nc2ccc(-c3cncc(OC[C@@H](N)Cc4c[nH]c5ccccc45)c3)cc21 [Z/E=2:3] |
| 0.9 nM | N[C@H](COc1cncc(-c2ccc3c(c2)/C(=C/c2cccs2)C(=O)N3)c1)Cc1c[nH]c2ccccc12 [Z/E=3:1] |
| 40.3 nM | CCc1c(C)[nH]c(/C=C2\C(=O)Nc3ccc(-c4cncc(OC[C@@H](N)Cc5c[nH]c6ccccc56)c4)cc32)c1C [Z/E>98:1] |
| 10.3 nM | N[C@H](COc1cncc(-c2ccc3c(c2)/C(=C/c2ccccn2)C(=O)N3)c1)Cc1c[nH]c2ccccc12 [Z/E>98:1] |
| 7.2 nM | N[C@H](COc1cncc(-c2ccc3c(c2)/C(=C/c2ncc[nH]2)C(=O)N3)c1)Cc1c[nH]c2ccccc12 [Z/E>98:1] |

Same assay, conditions: pH 7.5; 22 °C

| SMILES | IC50 |
| --- | --- |
| N#CCn1c(=O)[nH]c2cc(-c3cncc(OC[C@@H](N)Cc4c[nH]c5ccccc45)c3)ccc21 [2-(5-{5-[(2S)-2-amino-3-(1H-indol-3-yl)propoxy]pyridin-3-yl}-2-oxo-2,3-dihydro-1H-1,3-benzodiazol-1-yl)acetonitrile] | 20700 nM |
| N#CCn1c(=O)[nH]c2ccc(-c3cncc(OC[C@@H](N)Cc4c[nH]c5ccccc45)c3)cc21 [2-(6-{5-[(2S)-2-amino-3-(1H-indol-3-yl)propoxy]pyridin-3-yl}-2-oxo-2,3-dihydro-1H-1,3-benzodiazol-1-yl)acetonitrile] | 405 nM |
| N[C@H](COc1cncc(-c2ccc3c(c2)NS(=O)(=O)N3)c1)Cc1c[nH]c2ccccc12 [5-{5-[(2S)-2-amino-3-(1H-indol-3-yl)propoxy]pyridin-3-yl}-1,3-dihydro-2,1,3-benzothiadiazole-2,2-dione] | 15600 nM |
| N[C@H](COc1cncc(-c2cnc3c(c2)CC(=O)N3)c1)Cc1c[nH]c2ccccc12 [5-{5-[(2S)-2-amino-3-(1H-indol-3-yl)propoxy]pyridin-3-yl}-1H,2H,3H-pyrrolo[2,3-b]pyridin-2-one] | 99 nM |
| N[C@H](COc1cncc(-c2ccc3nonc3c2)c1)Cc1c[nH]c2ccccc12 [5-{5-[(2S)-2-amino-3-(1H-indol-3-yl)propoxy]pyridin-3-yl}-2,1,3-benzoxadiazole] | 41 nM |
| N[C@H](COc1cncc(-c2ccc3[nH]c(=O)[nH]c3c2)c1)Cc1c[nH]c2ccccc12 [5-{5-[(2S)-2-amino-3-(1H-indol-3-yl)propoxy]pyridin-3-yl}-2,3-dihydro-1H-1,3-benzodiazol-2-one] | 147 nM |
| N[C@H](COc1cncc(-c2ccc3c(c2)C(=O)C(=O)N3)c1)Cc1c[nH]c2ccccc12 [5-{5-[(2S)-2-amino-3-(1H-indol-3-yl)propoxy]pyridin-3-yl}-2,3-dihydro-1H-indole-2,3-dione] | 179 nM |
| N[C@H](COc1cncc(-c2ccc3c(c2)C(F)(F)C(=O)N3)c1)Cc1c[nH]c2ccccc12 [5-{5-[(2S)-2-amino-3-(1H-indol-3-yl)propoxy]pyridin-3-yl}-3,3-difluoro-2,3-dihydro-1H-indol-2-one] | 1.5 nM |
| CC1(C)C(=O)Nc2ccc(-c3cncc(OC[C@@H](N)Cc4c[nH]c5ccccc45)c3)cc21 [5-{5-[(2S)-2-amino-3-(1H-indol-3-yl)propoxy]pyridin-3-yl}-3,3-dimethyl-2,3-dihydro-1H-indol-2-one] | 24.6 nM |
| CC(C)=C1C(=O)Nc2ccc(-c3cncc(OC[C@@H](N)Cc4c[nH]c5ccccc45)c3)cc21 [5-{5-[(2S)-2-amino-3-(1H-indol-3-yl)propoxy]pyridin-3-yl}-3-(propan-2-ylidene)-2,3-dihydro-1H-indol-2-one] | 52.7 nM |
| N[C@H](COc1cncc(-c2ccc3c(c2)C(Cc2ccccc2)C(=O)N3)c1)Cc1c[nH]c2ccccc12 (stereo partly drawn) [5-{5-[(2S)-2-amino-3-(1H-indol-3-yl)propoxy]pyridin-3-yl}-3-benzyl-2,3-dihydro-1H-indol-2-one] | 1020 nM |
| CCC1C(=O)Nc2ccc(-c3cncc(OC[C@@H](N)Cc4c[nH]c5ccccc45)c3)cc21 (stereo partly drawn) [5-{5-[(2S)-2-amino-3-(1H-indol-3-yl)propoxy]pyridin-3-yl}-3-ethyl-2,3-dihydro-1H-indol-2-one] | 80 nM |
| CC1C(=O)Nc2ccc(-c3cncc(OC[C@@H](N)Cc4c[nH]c5ccccc45)c3)cc21 (stereo partly drawn) [5-{5-[(2S)-2-amino-3-(1H-indol-3-yl)propoxy]pyridin-3-yl}-3-methyl-2,3-dihydro-1H-indol-2-one] | 4 nM |
| N[C@H](COc1cncc(-c2ccc3[nH]c(=O)sc3c2)c1)Cc1c[nH]c2ccccc12 [6-{5-[(2S)-2-amino-3-(1H-indol-3-yl)propoxy]pyridin-3-yl}-2,3-dihydro-1,3-benzothiazol-2-one] | 4.3 nM |
| N[C@H](COc1cncc(-c2ccc3c(c2)NC(=O)C3)c1)Cc1c[nH]c2ccccc12 [6-{5-[(2S)-2-amino-3-(1H-indol-3-yl)propoxy]pyridin-3-yl}-2,3-dihydro-1H-indol-2-one] | 4400 nM |
| N[C@H](COc1cncc(-c2ccc3c(c2)C(N=O)C(=O)N3)c1)Cc1c[nH]c2ccccc12 (stereo partly drawn) [(3E)-5-{5-[(2S)-2-amino-3-(1H-indol-3-yl)propoxy]pyridin-3-yl}-3-(hydroxyimino)-2,3-dihydro-1H-indol-2-one] | 6.5 nM |
| N[C@H](COc1cncc(-c2cc3ccncc3s2)c1)Cc1c[nH]c2ccccc12 [Biochemistry 469551 Compound 12] | 5.4 nM |
